From patent publication US20230014137A1, “COMPOUND HAVING LYSOPHOSPHATIDIC ACID RECEPTOR AGONIST ACTIVITY AND PHARMACEUTICAL USE THEREOF” (ONO PHARMACEUTICAL CO., LTD., priority 2019, published 2023)

These molecules were tested against T1, human LPA3 receptor (Homo sapiens, UniProt Q9UBY5) (assay: LPA3 agonist activity measurement (Method A): intracellular Ca2+ in RH7777 cells stably expressing human LPA3 receptor). Conditions: RH7777 cells expressing human LPA3, Ca2+ fluorescence.
T1 construct: expressed in transfected cells; host or cells: CHO cells (Chinese hamster ovary) with the LPA1 receptor knocked down
T1 sequence (Q9UBY5 1-353): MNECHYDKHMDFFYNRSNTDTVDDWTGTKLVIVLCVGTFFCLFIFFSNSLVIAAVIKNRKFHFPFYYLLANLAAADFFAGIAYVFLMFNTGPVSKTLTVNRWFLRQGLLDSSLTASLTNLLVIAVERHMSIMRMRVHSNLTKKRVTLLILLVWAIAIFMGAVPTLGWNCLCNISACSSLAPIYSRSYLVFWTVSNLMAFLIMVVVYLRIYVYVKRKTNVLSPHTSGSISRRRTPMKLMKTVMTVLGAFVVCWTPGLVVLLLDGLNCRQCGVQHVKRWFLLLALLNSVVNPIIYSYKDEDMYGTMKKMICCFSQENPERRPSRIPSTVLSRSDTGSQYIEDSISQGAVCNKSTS
Format: cell-based
Method: (Method A) Using RH7777 cells derived from rat hepatocellular carcinoma as a host, each cell line (Multispan, Inc., Cat No. C1048-6, C1050-6, and C1053-6) stably expressing a human LPA3 receptor was subjected to an experiment. The cells cultured until reaching subconfluence were detached, and suspended in a medium (DMEM containing 10% FBS, 1% penicillin/streptomycin, 30 μg/mL puromycin) so as to be 4×10^5 cells/mL. The cells were seeded in a 96 well optical bottom plate (Asahi Techno Glass, MT4940-010) at 100 μL/well, and cultured under conditions of 5% CO2 and 37° C. for 1 day.
On the day of measurement, the medium was removed, and a medium containing 0.2% FBS was added at 100 μL/well, and cultured for 4 to 6 hours. Thereafter, the medium was removed, and an assay buffer (Hank's Balanced Salt Solution containing 0.02 mol/L HEPES, 2.5 mmol/L probenecid, 0.1% BSA, 5 μmol/L Fluo-4, Quenching Buffer, Pluronic F-127) was added at 100 μL/well, and the cells were incubated with 5% CO2 at 37° C. for about 1 hour. The plate was set in a fluorescent drug screening system (Hamamatsu Photonics K.K.), and after 30 seconds from the start of measurement, 25 μL of a cell-added solution containing only a test substance or dimethyl sulfoxide (hereinafter, it is abbreviated as DMSO.) was added thereto. After 3 minutes, 25 μL of a ligand was further added thereto, and then measurement was performed for 4 minutes. A fluorescence wavelength of 540 nm at an excitation wavelength of 480 nm was measured, and intracellular Ca^2+ concentration was indicated by fluorescence intensity change.
(§1) Agonist action of the test substance was calculated as a ratio increase degree after addition of the test substance when a ratio increase value indicated by cells to which a cell-added solution containing only DMSO was added at the time of ligand addition was set to 100%. Further, EC50 value was calculated as a 50% action concentration using Microsoft Excel, from an activity (%) at concentrations before and after agonist activity exceeds 50%.
Cc1ccc(Cn2c(Br)c(C)c(CNC3CCC3)c2C(=O)O)cc1 [Example 2(34), 5-Bromo-3-[(cyclobutylamino)methyl]-4-methyl-1-(4-methylbenzyl)-1H-pyrrole-2-carboxylic acid] showed an EC50 of 0.04 µM. Cc1ccc(Cn2c(C(=O)O)c(CNC3CC3)c3ccccc32)cc1 [Example 2(18), 3-[(Cyclopropylamino)methyl]-1-(4-methylbenzyl)-1H-indole-2-carboxylic acid] was tested, and the EC50 was 1 µM. C=Cc1c(CNC2CCC2)c(C(=O)O)n(Cc2ccc(C)cc2)c1C [Example 6(7), 3-[(Cyclobutylamino)methyl]-5-methyl-1-(4-methylbenzyl)-4-vinyl-1H-pyrrole-2-carboxylic acid] showed an EC50 of 1 µM. In the case of Cc1ccc(Cn2c3c(c(CNC4CCC4)c2C(=O)O)CCCC3)cc1 [Example 7, 3-[(Cyclobutylamino)methyl]-1-(4-methylbenzyl)-4,5,6,7-tetrahydro-1H-indole-2-carboxylic acid], the EC50 is reported as 0.1 µM. Work on O=C(O)c1c(CNC2CCC2)c2ccccc2n1CC1CC1(F)F (centres unmarked) [Example 1(3), 3-[(Cyclobutylamino)methyl]-1-[(2,2-difluorocyclopropyl)methyl]-1H-indole-2-carboxylic acid] yielded an EC50 of 0.5 µM. Cc1ccc(Cn2c(C(=O)O)c(CNC3CCC3)c3ccccc32)cc1 [Example 2, 3-[(Cyclobutylamino)methyl]-1-(4-methylbenzyl)-1H-indole-2-carboxylic acid] gave an EC50 of 0.06 µM. For CCn1c(C(=O)O)c(CNC2CCC2)c2ccccc21 [Example 1(4), 3-[(Cyclobutylamino)methyl]-1-ethyl-1H-indole-2-carboxylic acid], the EC50 was 0.6 µM. For Cc1ccc(Cn2c(C(=O)O)c(C(C)NC3CCC3)c3ccccc32)cc1 (centres unmarked) [Example 5, 3-[1-(Cyclobutylamino)ethyl]-1-(4-methylbenzyl)-1H-indole-2-carboxylic acid], the EC50 was 0.1 µM. Cc1ccc(Cn2c(C)c(-c3cccc(F)c3)c(CNC3CCC3)c2C(=O)O)cc1 [Example 6(2), 3-[(Cyclobutylamino)methyl]-4-(3-fluorophenyl)-5-methyl-1-(4-methylbenzyl)-1H-pyrrole-2-carboxylic acid] was tested, and the EC50 was 0.9 µM.

The molecules below were run against T1, human LPA3 receptor (assay: LPA3 agonist activity measurement (Method B): intracellular Ca2+ in LPA1-knockdown CHO cells stably expressing human LPA3 receptor). Conditions: LPA1-knockdown CHO cells expressing human LPA3, Ca2+ fluorescence.
Format: cell-based
Text: (Method B) A cell line stably expressing a human LPA3 receptor using a cell obtained by knocking down an LPA1 receptor of CHO cells of Chinese hamster ovary as a host was subjected to an experiment. The cryopreserved cells were thawed and suspended in loading buffer (Hank's Balanced Salt Solution containing 0.02 mol/L HEPES, 2.5 mmol/L probenecid, 0.1% BSA, 5 μmol/L Fluo-4, Quenching Buffer, Pluronic F-127) so as to be 1×10^5 cells/mL. The plate was allowed to stand under conditions of 5% CO2 and 37° C. for 1 hour, then the buffer was replaced with an assay buffer (Hank's Balanced Salt Solution containing 0.02 mol/L HEPES, 2.5 mmol/L probenecid, 0.1% BSA), and the cells were seeded in a 384 well optical bottom plate (384 Well microplate, low volume, Corning, 3540) at 10 μL/well.
A plate was set in a fluorescent drug screening system (Hamamatsu Photonics K.K.), and after 15 seconds from the start of the measurement, 10 μL of a positive control, the test substance or the cell-added solution containing only DMSO was added thereto, and the measurement was performed for 1 minute. A fluorescence wavelength of 540 nm at an excitation wavelength of 480 nm was measured, and intracellular […] concentration was indicated by fluorescence intensity change.
as §1, with “the positive control or the” for “cells to which a”, “containing” for “containing only DMSO”, “added” for “added at the time of ligand addition”
O=C(O)c1c(CNC2CCC2)c2ccccc2n1Cc1cccs1 [Example 2(74), 3-[(Cyclobutylamino)methyl]-1-(2-thienylmethyl)-1H-indole-2-carboxylic acid] was tested, and the EC50 was 0.03 µM. For CSc1ccccc1Cn1c(C(=O)O)c(CNC2CCC2)c2ccccc21 [Example 2(75), 3-[(Cyclobutylamino)methyl]-1-[2-(methylthio)benzyl]-1H-indole-2-carboxylic acid], the EC50 was 0.06 µM. Cc1ccc(Cn2c(C(=O)O)c(CNC3CSC3)c3ccccc32)cc1 [Example 2(71), 1-(4-Methylbenzyl)-3-[(3-thiethanylamino)methyl]-1H-indole-2-carboxylic acid] was tested, and the EC50 was 0.06 µM. Cc1ccc(Cn2c(C(=O)O)c(CNC3CCC3C)c3ccccc32)cc1 (centres unmarked) [Example 2(46)] showed an EC50 of 0.1 µM. For O=C(O)c1c(CNC2CCCC2)c2ccccc2n1Cc1ccccc1Cl [Example 2(70), 1-(2-Chlorobenzyl)-3-[(cyclopentylamino)methyl]-1H-indole-2-carboxylic acid], the EC50 was 0.2 µM. Work on O=C(O)c1c(CNC2CCC2)c2ccccc2n1CC1CC1(F)F (centres unmarked) [Example 1(3), 3-[(Cyclobutylamino)methyl]-1-[(2,2-difluorocyclopropyl)methyl]-1H-indole-2-carboxylic acid] yielded an EC50 of 0.2 µM. With Cc1ccc(Cn2c(C(=O)O)c(CNC3CCC3)c3cccnc32)cc1 [Example 2(49), 3-[(Cyclobutylamino)methyl]-1-(4-methylbenzyl)-1H-pyrrolo[2,3-b]pyridine-2-carboxylic acid] the EC50 was 0.1 µM. Work on Cc1ccc(Cn2c(C(=O)O)c(CNC3CCC3)c3cccc(C#N)c32)cc1 [Example 9(1), 7-Cyano-3-[(cyclobutylamino)methyl]-1-(4-methylbenzyl)-1H-indole-2-carboxylic acid] yielded an EC50 of 0.2 µM. With O=C(O)c1c(CNC2CCC2)c2ccccc2n1Cc1ccccc1OC(F)F [Example 2(53), 3-[(Cyclobutylamino)methyl]-1-[2-(difluoromethoxy)benzyl]-1H-indole-2-carboxylic acid] the EC50 was 0.1 µM. In the case of CCn1c(C(=O)O)c(CNC2CCC2)c2ccccc21 [Example 1(4), 3-[(Cyclobutylamino)methyl]-1-ethyl-1H-indole-2-carboxylic acid], the EC50 is reported as 0.6 µM. Work on O=C(O)c1c(CNC2CCC2)c2ccccc2n1Cc1cccc(C2CC2)c1 [Example 2(41), 3-[(Cyclobutylamino)methyl]-1-(3-cyclopropylbenzyl)-1H-indole-2-carboxylic acid] yielded an EC50 of 0.04 µM. O=C(O)c1c(CNC2CC2)c2ccccc2n1Cc1ccccc1Cl [Example 2(72), 1-(2-Chlorobenzyl)-3-[(cyclopropylamino)methyl]-1H-indole-2-carboxylic acid] was tested, and the EC50 was 0.1 µM. For Cc1ccc(Cn2c(C(=O)NS(C)(=O)=O)c(CNC3CCC3)c3ccccc32)cc1 [Example 19, 3-[(Cyclobutylamino)methyl]-1-(4-methylbenzyl)-N-(methylsulfonyl)-1H-indole-2-carboxamide], the EC50 was 0.06 µM. Molecule O=C(O)c1c(CNC2CCC2)c2ccccc2n1Cc1ccccc1Cl [Example 2(6), 1-(2-Chlorobenzyl)-3-[(cyclobutylamino)methyl]-1H-indole-2-carboxylic acid] has an EC50 of 0.05 µM.
